Laboratory results taken from paper PMC6131760, “4-Phenyl-1,3-thiazole-2-amines as scaffolds for new antileishmanial agents” (The Journal of Venomous Animals and Toxins Including …, 2018).
Read-outs that look alike come from different tables or passages of the source. Values belong to the molecule of their own block, whether it stands above or below them.

Tests used:
[1] = test system: promastigotes of Leishmania amazonensis (MHOM/BR/1973/M2269); experiment: Antileishmanial assay against promastigotes (PrestoBlue viability); type: cell-based; settings: L. amazonensis promastigotes
Protocol: All compounds were assayed against promastigotes of Leishmania amazonensis (MHOM/BR/1973/M2269). Promastigotes were grown in 199 media (Sigma, USA) supplemented with 10% (v/v) of fetal bovine serum, 1% penicillin (10,000 UI/mL)/streptomycin (10.0 mg/mL) (Sigma, USA). The parasites were collected at log phase, they were counted at the Neubauer chamber, their concentration was adjusted to 1 × 10^6 cell/mL, and their cells were seeded at a 96-wells plate. The 4-phenyl-2-aminothiazoles were added to the culture, considering concentrations ranging from 3.2 to 142 μM. Compounds were diluted in Dimethyl sulfoxide (DMSO) (25 mg/mL) and diluted in 199 media to generate a 1% DMSO starting solution of each test compound. Positive control with no compounds and DMSO control were considered at the assay. All plates were incubated at 25 °C for 48 h, and PrestoBlue® vital dye was added to the wells.
Viability was accessed with PrestoBlue® (Invitrogen, ThermoFisher) according to the manufacturer’s instructions. The reagent was added in each well (10 μL) and plates incubated for 2 h. Then, plates were read on a microplate reader (PowerWave HT, Biotek) with excitation/emission 560/590 nm (nm). The relative fluorescence units were used to generate the quantitative results. All compounds were analyzed as duplicates, and the parameters to calculate IC50 were obtained by GraphPad Prism, version 5.0. IC50 values were determined by the Hill equation rearranged. LogIC50=logEC50−logTop−Bottom/Y−Bottom−1/HillSlope

THP1 cells = experiment: Cytotoxicity assay in THP-1 cells differentiated into macrophages (PrestoBlue); type: cell-based, human
Protocol: (§1) The cytotoxicity was measured in L929 and THP1 cell lines using PrestoBlue®Cell Viability Reagent (Thermo Scientific, Invitrogen) as described by Lall et al. with modifications. First, cells were maintained in RPMI 1640 (Gibco) supplemented with 10% fetal bovine serum (FBS) and 1% antibiotics (100 U/mL penicillin, 100 μg/mL streptomycin). Cell cultures were grown and maintained at 37 °C in a humidified incubator with 5% CO2. Then, L929 cells were seeded in 96-wells flat microtiter plate at a concentration of 1 × 10^5cells/mL (100 μL/well). To THP-1 cells, cultures were differentiated into macrophages by adding 50 ng/mL 12-myristate 13-acetate phorbol (PMA) (Calbiochem, San Diego, USA) in RPMI-free FBS. After 24 h of culturing, the adhered cells were washed with PBS and RPMI with 10% FBS were added. […] The plates were incubated for 48 h and, thereafter, 20 μL/well PrestoBlue® was added. The plates were incubated for further 2 h and the fluorescence was read at bottom using 540–570 nm excitation and 580–610 nm emission. The average of the fluorescence values of the control wells (medium plus PrestoBlue®) was subtracted from the fluorescence value of the positive controls (cells, medium, and PrestoBlue®) and from each experimental well (cells, medium, compounds and PrestoBlue®). In all cases, the CC50 was calculated as described as in the Antileishmanial assay Section. Selectivity indexes (SI) were calculated by dividing CC50 against each mammalian cell line by the IC50 against L. amazonensis (CC50/IC50).

L929 cells = experiment: Cytotoxicity assay in L929 cells (PrestoBlue); type: cell-based
Protocol: as §1

VERO cells = experiment: Cytotoxicity assay in Vero cells (MTT); type: cell-based, African green monkeys
Protocol: (§2) Cytotoxicity was also evaluated using Vero cells, a monkey kidney cell line obtained from the American Type Culture Collection (ATCC CCL-81; Manassas, VA). The cytotoxicity was determined by the 3-(4,5dimethylthiazol- 2-yl)-2,5-diphenyltetrazolium bromide (MTT) method according to a previously described procedure.
(§3) In all cases, the CC50 was calculated as described as in the Antileishmanial assay Section.
(§4) Selectivity indexes (SI) were calculated by dividing CC50 against each mammalian cell line by the IC50 against L. amazonensis (CC50/IC50).

[2] = Cytotoxicity assay in THP-1 cells differentiated into macrophages (PrestoBlue); type: cell-based, human; settings: human, THP-1 cells differentiated into macrophages with PMA; PMA-differentiated THP-1, 48 h, PrestoBlue; read-out: CC50 THP1 cells
Protocol: as §1

[3] = Cytotoxicity assay in L929 cells (PrestoBlue); type: cell-based; settings: mouse, L929 fibroblast cells; L929 fibroblasts, 48 h, PrestoBlue
Protocol: as §1

[4] = Cytotoxicity assay in Vero cells (MTT); type: cell-based, African green monkeys; settings: African green monkey, Vero cells (monkey kidney cell line, ATCC CCL-81); Vero cells, MTT
Protocol: as §2, §3, §4

[5] = Leishmania amazonensis, 48 h, 48 h at 25 °C, PrestoBlue, 3.2 to 142 μM tested, read-out: IC50
[6] = PMA-differentiated THP-1, 48 h, PrestoBlue, read-out: CC50 THP1 cells
[7] = L929 fibroblasts, 48 h, PrestoBlue, read-out: CC50 L929 cells
[8] = Vero cells, MTT, read-out: CC50 VERO cells
[9] = 48 h at 25 °C, PrestoBlue, 3.2 to 142 μM tested, read-out: IC50

SMILES: C[C@@H]1[C@H](O)[C@@H](C)/C=C/C=C/C=C/C=C/C=C/C=C/C=C/[C@H](O[C@@H]2O[C@H](C)[C@@H](O)[C@H](N)[C@@H]2O)C[C@@H]2O[C@](O)(C[C@@H](O)C[C@@H](O)[C@H](O)CC[C@@H](O)C[C@@H](O)CC(=O)O[C@H]1C)C[C@H](O)[C@H]2C(=O)O [Amphotericin B, reference compound]
IC50 [1, 5]: 16.2 µM

SMILES: Nc1nc(-c2ccccc2)cs1 [Compound 1]
pIC50 ([1]; pIC50 = −log10 (IC50)): 3.02
CC50 (THP1 cells; [6]): 144 µM
CC50 (L929 cells; [7]): 198 µM
CC50 (VERO cells; [8]): 710 µM

SMILES: Cc1ccc(-c2csc(N)n2)cc1 [Compound 2]
IC50 [1, 9]: 108 µM
pIC50 ([1]; pIC50 = −log10 (IC50)): 3.97
CC50 (THP1 cells; [6]): 135 µM
CC50 (L929 cells; [7]): 160 µM
CC50 (VERO cells; [8]): 658 µM

SMILES: CCc1ccc(-c2csc(N)n2)cc1 [Compound 3]
IC50 [1, 9]: 46.6 µM
pIC50 ([1]; pIC50 = −log10 (IC50)): 4.33
CC50 (THP1 cells): 117 µM
CC50 (L929 cells): 95.5 µM
CC50 (VERO cells): 1220 µM

SMILES: Nc1nc(-c2ccc(Cl)c(Cl)c2)cs1 [Compound 4]
pIC50 ([1]; pIC50 = −log10 (IC50)): 4.27
CC50 (THP1 cells; [6]): 84.7 µM
CC50 (L929 cells; [7]): 121 µM
CC50 (VERO cells; [8]): 255 µM

SMILES: Nc1nc(-c2ccc(C(F)(F)F)cc2)cs1 [Compound 5]
pIC50 ([1]; pIC50 = −log10 (IC50)): 4.27
CC50 (THP1 cells; [6]): 92.2 µM
CC50 (L929 cells; [7]): 106 µM
CC50 (VERO cells; [8]): 512 µM

melting point: 227 to 230 °C
SMILES: CC(C)(C)c1ccc(-c2csc(N)n2)cc1 [Compound 6]
IC50 [1, 9]: 20.8 µM
IC50 [1, 5]: 21 µM
IC50 ([1]; Leishmania amazonensis, pIC50 = −log10 (IC50), read-out: pIC50 (converted)): 20.9 µM
CC50 at 48 h [2]: 45.7 µM
CC50 at 48 h [3]: 27.1 µM
CC50 [4]: 118 µM

SMILES: Nc1nc(-c2ccc(O)cc2)cs1 [Compound 7]
IC50 ([1]; 48 h at 25 °C, PrestoBlue, 3.2 to 142 μM tested): inactive
pIC50 ([1]; pIC50 = −log10 (IC50)): inactive
CC50 THP1 cells (THP1 cells; PMA-differentiated THP-1, 48 h, PrestoBlue): inactive
CC50 L929 cells (L929 cells; L929 fibroblasts, 48 h, PrestoBlue): Inactive
CC50 (VERO cells; [8]): 651 µM

SMILES: Nc1nc(-c2ccc(Cl)cc2)cs1 [Compound 8]
IC50 [1, 9]: 116 µM
pIC50 ([1]; pIC50 = −log10 (IC50)): 3.94
CC50 (THP1 cells; [6]): 82.2 µM
CC50 (L929 cells; [7]): 115 µM
CC50 (VERO cells; [8]): 596 µM

SMILES: N=C(N)c1ccc(OCCCCCOc2ccc(C(=N)N)cc2)cc1 [Pentamidine, reference compound]
IC50 [1, 5]: 10.8 µM
